# From patent publication US20230181560A1, “COMPOUND FOR PREVENTING OR TREATING A VIRAL INFECTION” (priority 2020, published 2023)
# Read-outs that look alike come from different tables or passages of the source.
# How the values were obtained:
# HIV-1 lai = assay: Intracellular P24 capsid protein staining by flow cytometry in HIV-1 infected CD4 T lymphocytes; assay type: cell-based; conditions: 20 µM added every two days, staining day 4, 5, 6 post-infection
# SARS-CoV-2 [1] = assay: microbe, parasite or virus in culture; assay type: cell-based
# SARS-CoV-2 [2] = assay type: cell-based
# SARS-CoV-2 [3] = assay type: cell-based; remark: listed apart in the source
# [4] = test system: CD4 T lymphocytes infected with HIV-1 lai; assay: Annexin V staining (cell mortality/apoptosis) of HIV-1 infected CD4 T lymphocytes; assay type: cell-based; conditions: 20 µM every two days; day 5 post-infection
# caspases = conditions: cited from earlier work
# SIV = conditions: cited from earlier work
# HIV = conditions: WO2009/092897; cited from earlier work
structure (smiles),measurement,setting,value
CCO[C@@H]1OC(=O)C[C@@H]1NC(=O)[C@@H]1CCCN1C(=O)[C@@H](NC(=O)c1ccc(N)c(Cl)c1)C(C)(C)C [VX-765],antiviral effect on HIV-1 replication (intracellular P24 capsid protein),HIV-1 lai,no effect on the viral replication
CC(C)C(NC(=O)c1ccc2ccccc2n1)C(=O)NC(CCC(=O)O)C(=O)COc1c(F)cccc1F (stereo not shown) [Q-VE-OPh],toxicity on Vero E6 cells,Vero E6 cells; 100 µM added for three days,without any toxicity
same,toxicity on Vero E6 cells,"Vero E6 cells; 25, 50, 100 µM, infected (MOI 0.05) or not, 72 h post-infection",no toxicity effect
same,effect on the entry of the virus into the cell,SARS-CoV-2 [1],no significant effect
same,inhibition at 50 µM,"SARS-CoV-2 [1]; Severe acute respiratory syndrome coronavirus 2, Vero C1008, 72 h, read-out: inhibition of SARS-CoV-2 viral replication",~99%
same,inhibition at 25 µM,"SARS-CoV-2 [1]; Severe acute respiratory syndrome coronavirus 2, Vero C1008, 72 h, 25 µM, read-out: inhibition of SARS-CoV-2 viral replication",~70%
same,relative expression of the Nucleocapsid (N) and NSP6 genes in supernatants of infected cells,SARS-CoV-2 [2],reduce significantly
same,expression of the viral Spike and Nucleocapsid proteins within infected cells,SARS-CoV-2 [3],reduce significantly
same,antiviral effect on HIV-1 replication (intracellular P24 capsid protein),HIV-1 lai,same antiviral effect as the comparative Q-VD-OPh molecule
same,cell mortality (Annexin V surface staining),[4],much less mortality than the infected cells
same,caspase inhibitory activity,caspases,does not show any caspase inhibitory activity
COC(=O)C[C@H](NC(=O)[C@@H](NC(=O)c1ccc2ccccc2n1)C(C)C)C(=O)COc1c(F)cccc1F [QVD-methylated],antiviral effect on HIV-1 replication (intracellular P24 capsid protein),HIV-1 lai,same antiviral effect
same,cell mortality (Annexin V surface staining),[4],contrary
CC(C)[C@H](NC(=O)c1ccc2ccccc2n1)C(=O)N[C@@H](CC(=O)O)C(=O)COc1c(F)cccc1F [QVD-Unmethylated],antiviral effect on HIV-1 replication (intracellular P24 capsid protein),HIV-1 lai,same antiviral effect
same,cell mortality (Annexin V surface staining),[4],The results were the same
CC(C)C(NC(=O)c1ccc2ccccc2n1)C(=O)NC(CC(=O)O)C(=O)COc1c(F)cccc1F (stereo not shown) [Q-VD-OPh],AIDS disease progression and control of viral replication,"SIV; SIV-infected rhesus macaques, five injections during primary infection",prevents AIDS disease progression
same,cancer development after treatment,"SIV; six monkeys, four or five years after treatment",none of the animals have developed a cancer
same,inhibition of viral replication in HIV-infected cells,HIV,inhibition of viral replication
same,caspase inhibitory activity,caspases,broad caspase inhibitor
